pIC50: −log10 of the molar value.
Test system: 282377-053-R-J1-PDC complex spheroid viability
Assay: Anticancer human tumor 282377-053-R-J1-PDC patient-derived colon adenocarcinoma cell line growth inhibition [RAS]
Settings: for pIC50: curve of first compound; for viability, T/C: stronger effect = lower value
Method in brief: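 Multi-cell-type spheroids: tumor cells plus HUVEC endothelial cells and mesenchymal stem cells. RAS-pathway inhibitors were combined with targeted agents, each dosed in half-log steps down from clinical Cmax, or from 10 microM when Cmax was unknown.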

[1] = second compound 0.000949 µM, first compound 0.0316 µM
[2] = second compound 0.000949 µM, first compound 0.1 µM
[3] = second compound 0.000949 µM, first compound 0.316 µM
[4] = second compound 0.000949 µM, first compound 1 µM
[5] = second compound 0.000949 µM, first compound 3.16 µM
[6] = second compound 0.000949 µM, first compound 10 µM
[7] = second compound 0.003 µM, first compound 0.0316 µM
[8] = second compound 0.003 µM, first compound 0.1 µM
[9] = second compound 0.003 µM, first compound 0.316 µM
[10] = second compound 0.003 µM, first compound 1 µM
[11] = second compound 0.003 µM, first compound 3.16 µM
[12] = second compound 0.003 µM, first compound 10 µM
[13] = second compound 0.00949 µM, first compound 0.0316 µM
[14] = second compound 0.00949 µM, first compound 0.1 µM
[15] = second compound 0.00949 µM, first compound 0.316 µM
[16] = second compound 0.00949 µM, first compound 1 µM
[17] = second compound 0.00949 µM, first compound 3.16 µM
[18] = second compound 0.00949 µM, first compound 10 µM
[19] = second compound 0.03 µM, first compound 0.0316 µM
[20] = second compound 0.03 µM, first compound 0.1 µM
[21] = second compound 0.03 µM, first compound 0.316 µM
[22] = second compound 0.03 µM, first compound 1 µM
[23] = second compound 0.03 µM, first compound 3.16 µM
[24] = second compound 0.03 µM, first compound 10 µM
[25] = second compound 0.0949 µM, first compound 0.0316 µM
[26] = second compound 0.0949 µM, first compound 0.1 µM
[27] = second compound 0.0949 µM, first compound 0.316 µM
[28] = second compound 0.0949 µM, first compound 1 µM
[29] = second compound 0.0949 µM, first compound 3.16 µM
[30] = second compound 0.0949 µM, first compound 10 µM
[31] = second compound 0.3 µM, first compound 0.0316 µM
[32] = second compound 0.3 µM, first compound 0.1 µM
[33] = second compound 0.3 µM, first compound 0.316 µM
[34] = second compound 0.3 µM, first compound 1 µM
[35] = second compound 0.3 µM, first compound 3.16 µM
[36] = second compound 0.3 µM, first compound 10 µM
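Also: spheroids exposed to agents for seven days before readout.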
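For viability, T/C in this document: luminescence viability as percent of DMSO vehicle control wells.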

SMILES: CC(=O)OC12COC1CC(O)C1(C)C(=O)C(O)C3=C(C)C(OC(=O)C(O)C(NC(=O)OC(C)(C)C)c4ccccc4)CC(O)(C(OC(=O)c4ccccc4)C21)C3(C)C (centres undefined) + CCn1c(-c2cc(N3CCN(C)CC3)cnc2C(C)OC)c2c3cc(ccc31)-c1csc(n1)CC(NC(=O)C1CC1C)C(=O)N1CCCC(N1)C(=O)OCC(C)(C)C2
- pIC50 (second compound 0.000949 µM): > 7.50
- pIC50 (second compound 0.003 µM): > 7.50
- pIC50 (second compound 0.00949 µM): > 7.50
- pIC50 (second compound 0.03 µM): > 7.50
- pIC50 (second compound 0.0949 µM): > 7.50
- pIC50 (second compound 0.3 µM): > 7.50
- viability, T/C [1]: 41.2%
- viability, T/C [2]: 48.6%
- viability, T/C [3]: 44.2%
- viability, T/C [4]: 52%
- viability, T/C [5]: 61%
- viability, T/C [6]: 97.3%
- viability, T/C [7]: 50.1%
- viability, T/C [8]: 38.4%
- viability, T/C [9]: 45.5%
- viability, T/C [10]: 55.2%
- viability, T/C [11]: 52.2%
- viability, T/C [12]: 83.2%
- viability, T/C [13]: 50.1%
- viability, T/C [14]: 42.6%
- viability, T/C [15]: 52.5%
- viability, T/C [16]: 38.7%
- viability, T/C [17]: 72.2%
- viability, T/C [18]: 91.9%
- viability, T/C [19]: 36.1%
- viability, T/C [20]: 46%
- viability, T/C [21]: 41.9%
- viability, T/C [22]: 58.2%
- viability, T/C [23]: 60.5%
- viability, T/C [24]: 96.2%
- viability, T/C [25]: 42%
- viability, T/C [26]: 49.4%
- viability, T/C [27]: 46.3%
- viability, T/C [28]: 40.2%
- viability, T/C [29]: 77.5%
- viability, T/C [30]: 77.6%
- viability, T/C [31]: 43.1%
- viability, T/C [32]: 54.1%
- viability, T/C [33]: 47.9%
- viability, T/C [34]: 56.3%
- viability, T/C [35]: 79.6%
- viability, T/C [36]: 100%

SMILES: CCC(CC)c1cc(NC2CCC(N)C2)n2nccc2n1 (centres undefined) + CCn1c(-c2cc(N3CCN(C)CC3)cnc2C(C)OC)c2c3cc(ccc31)-c1csc(n1)CC(NC(=O)C1CC1C)C(=O)N1CCCC(N1)C(=O)OCC(C)(C)C2
- pIC50 (second compound 0.000949 µM): 5.77
- pIC50 (second compound 0.003 µM): 5.83
- pIC50 (second compound 0.00949 µM): 5.76
- pIC50 (second compound 0.03 µM): 5.82
- pIC50 (second compound 0.0949 µM): 5.75
- pIC50 (second compound 0.3 µM): 5.74
- viability, T/C [1]: 85.5%
- viability, T/C [2]: 98.8%
- viability, T/C [3]: 98.5%
- viability, T/C [4]: 84.1%
- viability, T/C [5]: 11.1%
- viability, T/C [6]: 6.68%
- viability, T/C [7]: 89.4%
- viability, T/C [8]: 86.5%
- viability, T/C [9]: 81.2%
- viability, T/C [10]: 70.5%
- viability, T/C [11]: 10.4%
- viability, T/C [12]: 3.1%
- viability, T/C [13]: 81.9%
- viability, T/C [14]: 95.3%
- viability, T/C [15]: 72%
- viability, T/C [16]: 90.7%
- viability, T/C [17]: 10.8%
- viability, T/C [18]: 4.36%
- viability, T/C [19]: 76%
- viability, T/C [20]: 82%
- viability, T/C [21]: 85.7%
- viability, T/C [22]: 71.2%
- viability, T/C [23]: 13.2%
- viability, T/C [24]: 7.45%
- viability, T/C [25]: 95.7%
- viability, T/C [26]: 87.2%
- viability, T/C [27]: 76.1%
- viability, T/C [28]: 88.6%
- viability, T/C [29]: 13%
- viability, T/C [30]: 2.75%
- viability, T/C [31]: 94.7%
- viability, T/C [32]: 78%
- viability, T/C [33]: 86.1%
- viability, T/C [34]: 94.9%
- viability, T/C [35]: 13.4%
- viability, T/C [36]: 3.35%
